In ChEMBL document CHEMBL5131555, “Antibacterial Nanoassembled Calix[4]arene Exposing Choline Units Inhibits Biofilm and Motility of Gram Negative Bacteria” (2022):
Active and inactive are the calls of the source. No cut-off for these calls is given here.

Legend:
[1] = tested on: Pseudomonas aeruginosa; assay: Effect on twitching capacity of ofloxacin resistant Pseudomonas aeruginosa 1 ocular isolate assessed as reduction of motility zone at 1/2 times of MIC incubated for 24 hrs; type: functional; parameters: scale not given: the % may be the effect or the level left
[2] = tested on: Pseudomonas aeruginosa; assay: Antibiofilm activity against ofloxacin resistant Pseudomonas aeruginosa 1 ocular isolate assessed as inhibition of biofilm biomass at 1/2 times of MIC measured after 24 hrs by safranin staining based spectrophotometer EIA reader analysis; type: functional
[3] = tested on: Escherichia coli; assay: Antibacterial activity against Escherichia coli ATCC 10536 assessed as bacterial growth inhibition measured after 24 hrs by CLSI based microdilution method; type: functional
[4] = tested on: Pseudomonas aeruginosa; assay: Antibacterial activity against Pseudomonas aeruginosa ATCC 9027 assessed as bacterial growth inhibition measured after 24 hrs by CLSI based microdilution method; type: functional
[5] = tested on: Pseudomonas aeruginosa; assay: Antibacterial activity against Pseudomonas aeruginosa DSM 102273 assessed as bacterial growth inhibition measured after 24 hrs by CLSI based microdilution method; type: functional
[6] = tested on: Pseudomonas aeruginosa; assay: Antibacterial activity against ofloxacin resistant Pseudomonas aeruginosa 1 ocular isolate assessed as bacterial growth inhibition measured after 24 hrs by CLSI based microdilution method; type: functional
[7] = tested on: Escherichia coli; assay: Bactericidal activity against Escherichia coli ATCC 10536 assessed as bacterial growth inhibition measured after 24 to 48 hrs by CLSI based microdilution method; type: functional; settings: time 24-48 hrs
[8] = tested on: Pseudomonas aeruginosa; assay: Bactericidal activity against Pseudomonas aeruginosa ATCC 9027 assessed as bacterial growth inhibition measured after 24 to 48 hrs by CLSI based microdilution method; type: functional; settings: time 24-48 hrs
[9] = tested on: Pseudomonas aeruginosa; assay: Bactericidal activity against Pseudomonas aeruginosa DSM 102273 assessed as bacterial growth inhibition measured after 24 to 48 hrs by CLSI based microdilution method; type: functional; settings: time 24-48 hrs
[10] = tested on: Pseudomonas aeruginosa; assay: Bactericidal activity against ofloxacin resistant Pseudomonas aeruginosa 1 ocular isolate assessed as bacterial growth inhibition measured after 24 to 48 hrs by CLSI based microdilution method; type: functional; settings: time 24-48 hrs
[11] = tested on: Cell membrane; assay: Induction of outer membrane permeabilization in Escherichia coli ATCC 10536 assessed as crystal violet uptake at MIC incubated for 60 mins by crystal violet staining based UV-VIS spectrophotometer ( Rvb = 56%)
[12] = tested on: Cell membrane; assay: Induction of outer membrane permeabilization in Pseudomonas aeruginosa ATCC 9027 assessed as crystal violet uptake at MIC incubated for 60 mins by crystal violet staining based UV-VIS spectrophotometer ( Rvb = 53%)
[13] = tested on: Escherichia coli; assay: Antibiofilm activity against Escherichia coli ATCC 10536 assessed as inhibition of biofilm biomass at 1/2 times of MIC measured after 24 hrs by safranin staining based spectrophotometer EIA reader analysis; type: functional
[14] = tested on: Pseudomonas aeruginosa; assay: Antibiofilm activity against Pseudomonas aeruginosa ATCC 9027 assessed as inhibition of biofilm biomass at 1/2 times of MIC measured after 24 hrs by safranin staining based spectrophotometer EIA reader analysis; type: functional
[15] = tested on: Escherichia coli; assay: Bactericidal activity against Escherichia coli ATCC 10536 assessed as planktonic growth inhibition at 1/4 times of MIC measured after 24 hrs by spectrophotometer EIA reader analysis; type: functional
[16] = tested on: Escherichia coli; assay: Bactericidal activity against Escherichia coli ATCC 10536 assessed as planktonic growth inhibition at 1/8 times of MIC measured after 24 hrs by spectrophotometer EIA reader analysis; type: functional
[17] = tested on: Escherichia coli; assay: Antibiofilm activity against Escherichia coli ATCC 10536 assessed as inhibition of biofilm biomass at 1/4 times of MIC measured after 24 hrs by safranin staining based spectrophotometer EIA reader analysis; type: functional
[18] = tested on: Escherichia coli; assay: Antibiofilm activity against Escherichia coli ATCC 10536 assessed as inhibition of biofilm biomass at 1/8 times of MIC measured after 24 hrs by safranin staining based spectrophotometer EIA reader analysis; type: functional
[19] = tested on: Escherichia coli; assay: Antibiofilm activity against Escherichia coli ATCC 10536 assessed as inhibition of biofilm formation at 1/2 times of MIC measured after 24 hrs by safranin staining based light microscopy; type: functional, organism-based
[20] = tested on: Escherichia coli; assay: Antibiofilm activity against Escherichia coli ATCC 10536 assessed as inhibition of biofilm formation at 1/4 times of MIC measured after 24 hrs by safranin staining based light microscopy; type: functional, organism-based
[21] = tested on: Escherichia coli; assay: Antibiofilm activity against Escherichia coli ATCC 10536 assessed as formation of looser colonies at 1/2 times of MIC measured after 24 hrs by safranin staining based light microscopy; type: functional, organism-based
[22] = tested on: Escherichia coli; assay: Antibiofilm activity against Escherichia coli ATCC 10536 assessed as formation of looser colonies at 1/4 times of MIC measured after 24 hrs by safranin staining based light microscopy; type: functional, organism-based
[23] = tested on: Pseudomonas aeruginosa; assay: Antibiofilm activity against Pseudomonas aeruginosa ATCC 9027 assessed as reduction in preformed bacterial biofilm at 18.8 microg/ml measured after 24 hrs by safranin staining based spectrophotometer EIA reader analysis; type: functional; parameters: scale not given: the % may be the effect or the level left; settings: dose 18.8 µg/ml
[24] = tested on: Pseudomonas aeruginosa; assay: Antibiofilm activity against Pseudomonas aeruginosa ATCC 9027 assessed as reduction in preformed bacterial biofilm at 37.6 microg/ml measured after 24 hrs by safranin staining based spectrophotometer EIA reader analysis; type: functional; parameters: scale not given: the % may be the effect or the level left; settings: dose 37.6 µg/ml
[25] = tested on: Pseudomonas aeruginosa; assay: Antibiofilm activity against Pseudomonas aeruginosa ATCC 9027 assessed as reduction in preformed bacterial biofilm at 75 microg/ml measured after 24 hrs by safranin staining based spectrophotometer EIA reader analysis; type: functional; parameters: scale not given: the % may be the effect or the level left; settings: dose 75 µg/ml
[26] = tested on: Escherichia coli; assay: Antibiofilm activity against Escherichia coli ATCC 10536 assessed as reduction in preformed bacterial biofilm at 150 microg/ml measured after 24 hrs by safranin staining based spectrophotometer EIA reader analysis; type: functional; parameters: scale not given: the % may be the effect or the level left; settings: dose 150 µg/ml
[27] = tested on: Escherichia coli; assay: Effect on swarming capacity of Escherichia coli ATCC 10536 assessed as reduction of motility zone at 1/2 times of MIC incubated for 24 hrs; type: functional; parameters: scale not given: the % may be the effect or the level left
[28] = tested on: Escherichia coli; assay: Effect on twitching capacity of Escherichia coli ATCC 10536 assessed as reduction of motility zone at 1/2 times of MIC incubated for 24 hrs; type: functional; parameters: scale not given: the % may be the effect or the level left
[29] = tested on: Pseudomonas aeruginosa; assay: Effect on swarming capacity of Pseudomonas aeruginosa ATCC 9027 assessed as reduction of motility zone at 1/2 times of MIC incubated for 24 hrs; type: functional; parameters: scale not given: the % may be the effect or the level left
[30] = tested on: Pseudomonas aeruginosa; assay: Effect on twitching capacity of Pseudomonas aeruginosa ATCC 9027 assessed as reduction of motility zone at 1/2 times of MIC incubated for 24 hrs; type: functional; parameters: scale not given: the % may be the effect or the level left

## CCCCCCCCCCCCOc1c2cc(C[N+](C)(C)CCO)cc1Cc1cc(C[N+](C)(C)CCO)cc(c1OCCCCCCCCCCCC)Cc1cc(C[N+](C)(C)CCO)cc(c1OCCCCCCCCCCCC)Cc1cc(C[N+](C)(C)CCO)cc(c1OCCCCCCCCCCCC)C2.[Cl-].[Cl-].[Cl-].[Cl-]
[1]
  Activity: 50%
[2]
  inhibition (INH): 40%
[3]
  MIC: 18.8 µg/mL
[4]
  MIC: 9.4 µg/mL
[5]
  MIC: 18.8 µg/mL
[6]
  MIC: 9.4 µg/mL
[7]
  MBC: 18.8 µg/mL
[8]
  MBC: 18.8 µg/mL
[9]
  MBC: 18.8 µg/mL
[10]
  MBC: 18.8 µg/mL
[11]
  Activity: 78.8%
[12]
  Activity: 71.6%
[13]
  inhibition (INH): 90.4%
[14]
  inhibition (INH): 40%
[15]
  inhibition (INH): 14.5%
[16]
  inhibition (INH): 1.8%
[17]
  inhibition (INH): 77.6%
[18]
  inhibition (INH): 51%
[19]
  Activity: Active
[20]
  Activity: Active
[21]
  Activity: Active
[22]
  Activity: Active
[23]
  Activity: 37%
[24]
  Activity: 37%
[25]
  Activity: 58%
[26]
  Activity: 66.5%
[27]
  Activity: 50%
[28]
  Activity: 50%
[29]
  Activity: 50%
[30]
  Activity: 50%
